Patent US9518065B2, “IRAK inhibitors and uses thereof” (NIMBUS IRIS, INC., priority 2013, dated 2016)
pIC50: −log10 of the molar value.

Target: T1, IRAK4 (Homo sapiens, UniProt Q9NWZ3)
T1 construct: purchased CARNA Bioscience 09-145
T1 sequence (Q9NWZ3 1-460): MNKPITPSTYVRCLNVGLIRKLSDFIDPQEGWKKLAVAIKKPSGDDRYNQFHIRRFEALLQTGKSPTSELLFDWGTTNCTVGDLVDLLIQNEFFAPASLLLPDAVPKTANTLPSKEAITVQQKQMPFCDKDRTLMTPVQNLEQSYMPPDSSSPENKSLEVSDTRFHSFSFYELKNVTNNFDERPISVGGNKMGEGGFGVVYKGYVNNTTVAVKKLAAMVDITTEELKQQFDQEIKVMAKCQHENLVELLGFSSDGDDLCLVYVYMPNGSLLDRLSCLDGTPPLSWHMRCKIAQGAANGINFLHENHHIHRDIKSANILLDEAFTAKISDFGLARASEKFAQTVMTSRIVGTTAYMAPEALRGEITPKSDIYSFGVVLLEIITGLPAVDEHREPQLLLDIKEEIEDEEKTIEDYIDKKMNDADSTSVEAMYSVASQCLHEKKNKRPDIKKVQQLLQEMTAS
Assay: IRAK-4 activity inhibition assay (Caliper)
Assay type: biochemical
Conditions: 3.5 nM IRAK4, 37 μM ATP, 1.5 μM Peptide 8
Description: A 1× kinase base buffer was prepared from 50 mM HEPES, pH 7.5 and 0.0015% Brij-35. A stop buffer was prepared from 100 mM HEPES, pH 7.5, 0.015% Brij-35, 0.2% Coating Reagent #3, and 50 mM EDTA.
Test compound was diluted to 50× of the final desired highest inhibitor concentration in reaction by 100% DMSO. 100 ul of this compound dilution was transferred to a well in a 96-well plate. For example, if desired highest inhibitor concentration in IC50 determination is 100 uM, then prepare 5000 uM of compound DMSO solution in this step.
Test compound was serially diluted by transferring 30 μl to 60 μl of 100% DMSO in the next well and so forth for a total of 10 concentrations. 100 μl of 100% DMSO was added to two empty wells for no compound control and no enzyme control in the same 96-well plate.
A new 96-well plate was marked as intermediate plate. 5 μl of compound serial dilution was transferred from source plate to the corresponding wells of the intermediate plate. 45 μl of 1× kinase base buffer (KB buffer) was added to each well of the intermediate plate. The intermediate plate was placed for 10 min on a shaker.
5 μl of each well was transferred from the 96-well intermediate plate to a 384-well plate in duplicates. For example, A1 of the 96-well plate is transferred to A1 and A2 of the 384-well plate. A2 of the 96-well plate is transferred to A3 and A4 of the 384-well plate, and so on.
IRAK4 and DTT in 1× kinase base buffer was added. The 2.5× enzyme mix contained 8.8 nM IRAK4 and 5 mM DTT.
Peptide 8, ATP, MgCl2 and MnCl2 were added in the 1× kinase base buffer. The 2.5× peptide mix contained 3.75 μM peptide 8, 92.5 μM ATP, 12.5 mM MgCl2 and 2.5 mM MnCl2.
Assay plate already contained 5 μl of compound in 10% DMSO. Added 10 μl of 2.5× enzyme solution to each well of the 384-well assay plate, except no enzyme control wells. The final concentration of IRAK4 in reaction was 3.5 nM. Added 10 μl of 1× kinase base buffer to no enzyme control wells in the assay plate. Incubated at room temperature for 10 min.
Added 10 μl of 2.5× peptide solution to each well of the 384-well assay plate. The final concentration of Peptide 8 and ATP was 1.5 μM and 37 μM, respectively. Incubated at 28° C. for 40 minutes. Added 25 μl of stop buffer to stop reaction. Collected data on Caliper.
Copied conversion % data from Caliper program. Converted conversion % values to percent inhibition values. Percent inhibition=(max-conversion %)/(max-min)*100, where “max” means the conversion % of DMSO control and “min” means the conversion % of no enzyme control.
The compound numbers correspond to the compound numbers in Table 1. Compounds having an activity designated as “A” provided an IC50≦1 μM; compounds having an activity designated as “B” provided an IC50 of 1-5 μM; compounds having an activity designated as “C” provided an IC50 of ≧5 μM. “NA” stands for “not assayed.”

Row | pIC50 | Structure (SMILES)
1 | ≥ 6.00 | CC(C)c1nc2c(N[C@H]3CC[C@H](N4CCOCC4)CC3)nc(Nc3cnn(C)c3)nc2s1 [Compound I-47, 2-isopropyl-N5-(1-methyl-1H-pyrazol-4-yl)-N7-((1r,4r)-4-morpholinocyclohexyl)thiazolo[5,4-d]pyrimidine-5,7-diamine]
2 | 5.30 to 6.00 | CCc1nc2c(N[C@H]3CC[C@H](N4CCOCC4)CC3)ncnc2s1 [Compound I-5, 2-ethyl-N-((1r,4r)-4-morpholinocyclohexyl)thiazolo[5,4-d]pyrimidin-7-amine]
3 | ≥ 6.00 | c1nc2c(N[C@H]3CC[C@H](N4CCOCC4)CC3)nc(Nc3cnn(CC4CCOCC4)c3)nc2s1 [Compound I-52, N7-((1r,4r)-4-morpholinocyclohexyl)-N5-(1-((tetrahydro-2H-pyran-4-yl)methyl)-1H-pyrazol-4-yl)thiazolo[5,4-d]pyrimidine-5,7-diamine]
4 | ≥ 6.00 | CC(C)n1cc(Nc2nc(N[C@H]3CC[C@H](N4CCOCC4)CC3)c3ncsc3n2)cn1 [Compound I-53, N5-(1-isopropyl-1H-pyrazol-4-yl)-N7-((1r,4r)-4-morpholino-cyclohexyl)thiazolo[5,4-d]pyrimidine-5,7-diamine]
5 | ≥ 6.00 | c1nc2c(N[C@H]3CC[C@H](N4CCOCC4)CC3)nc(Nc3cnn(C4CCOCC4)c3)nc2s1 [Compound I-51, N7-((1r,4r)-4-morpholinocyclohexyl)-N5-(1-(tetrahydro-2H-pyran-4-yl)-1H-pyrazol-4-yl)thiazolo[5,4-d]pyrimidine-5,7-diamine]
6 | ≥ 6.00 | CCc1nc2c(N[C@H]3CC[C@H](N(C)CC(=O)N4CCCC4)CC3)nc(Nc3cnn(C)c3)nc2s1 [Compound I-15, 2-(((1r,4r)-4-((2-ethyl-5-((1-methyl-1H-pyrazol-4-yl)amino)-thiazolo[5,4-d]pyrimidin-7-yl)amino)cyclohexyl)(methyl)amino)-1-(pyrrolidin-1-yl)ethan-1-one]
7 | ≤ 5.30 | CCc1nc2c(N[C@H]3CC[C@H](N4CCOCC4)CC3)nc(N)nc2s1 [Compound I-31, 2-ethyl-N7-((1r,4r)-4-morpholinocyclohexyl)thiazolo[5,4-d]pyrimidine-5,7-diamine]
8 | ≥ 6.00 | Cc1nc2c(O[C@H]3CC[C@H](N4CCOCC4)CC3)nc(Nc3cnn(C(C)C)c3)nc2s1 [Compound I-57, N-(1-isopropyl-1H-pyrazol-4-yl)-2-methyl-7-(((1r,4r)-4-morpholino-cyclohexyl)oxy)thiazolo[5,4-d]pyrimidin-5-amine]
9 | 5.30 to 6.00 | CCc1nsc2ncnc(N[C@H]3CC[C@H](N4CCOCC4)CC3)c12 [Compound I-20, 3-ethyl-N-((1r,4r)-4-morpholinocyclohexyl)isothiazolo[5,4-d]pyrimidin-4-amine]
10 | ≥ 6.00 | Cn1cc(Nc2nc(N[C@H]3CC[C@H](N4CCOCC4)CC3)c3nc(C4CC4)sc3n2)cn1 [Compound I-49, 2-cyclopropyl-N5-(1-methyl-1H-pyrazol-4-yl)-N7-((1r,4r)-4-morpholinocyclohexyl)thiazolo[5,4-d]pyrimidine-5,7-diamine]
11 | ≤ 5.30 | Cc1nc2c(N[C@H]3CC[C@H](N4CCOCC4)CC3)nc(N)nc2s1 [Compound I-43, 2-methyl-N7-((1r,4r)-4-morpholinocyclo-hexyl)thiazolo[5,4-d]pyrimidine-5,7-diamine]
12 | 5.30 to 6.00 | CC(C)c1nc2c(N[C@H]3CC[C@H](N(C)C)CC3)ncnc2s1 [Compound I-2, (1r,4r)-N-1-(2-isopropylthiazolo[5,4-d]pyrimidin-7-yl)-N4,N4-dimethylcyclohexane-1,4-diamine]
13 | ≥ 6.00 | CC(=O)c1nc2c(N[C@H]3CC[C@H](N4CCOCC4)CC3)nc(Nc3cnn(C)c3)nc2s1 [Compound I-41, 1-(5-((1-methyl-1H-pyrazol-4-yl)amino)-7-(((1r,4r)-4-morpholinocyclohexyl)amino)thiazolo[5,4-d]pyrimidin-2-yl)ethan-1-one]
14 | ≥ 6.00 | Cn1cc(Nc2nc(N[C@H]3CC[C@H](N4CCOCC4)CC3)c3nc(C(F)(F)F)sc3n2)cn1 [Compound I-44, N5-(1-methyl-1H-pyrazol-4-yl)-N7-((1r,4r)-4-morpholino-cyclohexyl)-2-(trifluoromethyl)thiazolo[5,4-d]pyrimidine-5,7-diamine]
15 | ≤ 5.30 | CCc1nc2c(O[C@H]3CC[C@H](N(C)C)CC3)ncnc2s1 [Compound I-3, (1r,4r)-4-((2-ethylthiazolo[5,4-d]pyrimidin-7-yl)oxy)-N,N-dimethylcyclo-hexanamine]
16 | 5.30 to 6.00 | Cc1nc2c(N[C@H]3CC[C@H](N(C)C)CC3)ncnc2s1 [Compound I-4, (1r,4r)-N1,N1-dimethyl-N4-(2-methylthiazolo[5,4-d]pyrimidin-7-yl)cyclo-hexane-1,4-diamine]
17 | ≥ 6.00 | Cn1cc(Nc2nc(N[C@H]3CC[C@H](N4CCOCC4)CC3)c3nc(C(F)F)sc3n2)cn1 [Compound I-45, 2-(difluoromethyl)-N5-(1-methyl-1H-pyrazol-4-yl)-N7-((1r,4r)-4-morpholinocyclohexyl)thiazolo[5,4-d]pyrimidine-5,7-diamine]
18 | ≥ 6.00 | Cn1cc(Nc2nc(N[C@H]3CC[C@H](N4CCOCC4)CC3)c3nc(C(C)(F)F)sc3n2)cn1 [Compound I-48, 2-(1,1-difluoroethyl)-N5-(1-methyl-1H-pyrazol-4-yl)-N7-((1r,4r)-4-morpholinocyclohexyl)thiazolo[5,4-d]pyrimidine-5,7-diamine]
19 | ≥ 6.00 | Cn1cc(Nc2nc(N[C@H]3CC[C@H](N4CCOCC4)CC3)c3ncsc3n2)cn1 [Compound I-46, N5-(1-methyl-1H-pyrazol-4-yl)-N7-((1r,4r)-4-morpholinocyclo-hexyl)thiazolo[5,4-d]pyrimidine-5,7-diamine]
20 | ≥ 6.00 | OCCn1cc(Nc2nc(N[C@H]3CC[C@H](N4CCOCC4)CC3)c3ncsc3n2)cn1 [Compound I-54, 2-(4-((7-(((1r,4r)-4-morpholinocyclohexyl)amino)thiazolo[5,4-d]pyrimidin-5-yl)amino)-1H-pyrazol-1-yl)ethan-1-ol]
21 | 5.30 to 6.00 | CCc1nc2c(N[C@H]3CC[C@H](N(C)C)CC3)ncnc2s1 [Compound I-1, (1r,4r)-N1-(2-ethylthiazolo[5,4-d]pyrimidin-7-yl)-N4,N4-dimethylcyclohexane-1,4-diamine]
22 | 5.30 to 6.00 | CCc1nc2c(N[C@H]3CC[C@H](N4CCC(F)(F)CC4)CC3)nc(Nc3cnn(C)c3)nc2s1 [Compound I-11, N7-((1r,4r)-4-(4,4-difluoropiperidin-1-yl)cyclohexyl)-2-ethyl-N5-(1-methyl-1H-pyrazol-4-yl)thiazolo[5,4-d]pyrimidine-5,7-diamine]
23 | ≥ 6.00 | [2H]C([2H])([2H])c1nc2c(N[C@H]3CC[C@H](N4CCOCC4)CC3)nc(Nc3cnn(C)c3)nc2s1 [Compound I-58, 2-(methyl-d3)-N5-(1-methyl-1H-pyrazol-4-yl)-N7-((1r,4r)-4-morpholinocyclohexyl)thiazolo[5,4-d]pyrimidine-5,7-diamine]
24 | ≤ 5.30 | CCc1nc2c(N(CC)[C@H]3CC[C@H](N4CCOCC4)CC3)ncnc2s1 [Compound I-6, N,2-diethyl-N-((1r,4r)-4-morpholinocyclohexyl)thiazolo[5,4-d]pyrimidin-7-amine]
25 | 5.30 to 6.00 | Cn1cc(Nc2nc(N[C@H]3CC[C@H](N4CCOCC4)CC3)c3nc(C(C)(C)C)sc3n2)cn1 [Compound I-50, 2-(tert-butyl)-N5-(1-methyl-1H-pyrazol-4-yl)-N7-((1r,4r)-4-morpholinocyclohexyl)thiazolo[5,4-d]pyrimidine-5,7-diamine]
